System: MV-4-11 cells
Assay: Gene expression microarray analysis (Affymetrix PrimeView) and GSEA
Format: cell-based, human
Design: RFU PODN (11730768_x_at) / Fold change /veh PODN (11730768_x_at) / RFU LINC00158 (11744669_a_at) / Fold change /veh LINC00158 (11744669_a_at) / RFU DUSP10 (11751237_a_at) / Fold change /veh DUSP10 (11751237_a_at) / RFU ID3 (11757404_x_at) / Fold change /veh ID3 (11757404_x_at) / RFU PLEKHG5 (11737974_s_at) / Fold change /veh PLEKHG5 (11737974_s_at) / RFU LRRC4B (11730491_at) / Fold change /veh LRRC4B (11730491_at) / RFU GIMAP4 (11747438_a_at) / Fold change /veh GIMAP4 (11747438_a_at) / RFU KRT8 (11758183_x_at) / Fold change /veh KRT8 (11758183_x_at) / RFU CNN1 (11734310_a_at) / Fold change /veh CNN1 (11734310_a_at) / RFU VPS37D (11726825_at) / Fold change /veh VPS37D (11726825_at) / RFU C10orf10 (11716522_x_at) / Fold change /veh C10orf10 (11716522_x_at) / RFU KIR2DL2 /// KIR2DL4 /// KIR2DL5A /// KIR2DL5B /// KIR2DS1 /// KIR2DS2 /// KIR2DS3 /// KIR2DS4 /// KIR3DL3 /// KIR3DL3 /// KIR3DS1 (11738374_at) / Fold change /veh KIR2DL2 /// KIR2DL4 /// KIR2DL5A /// KIR2DL5B /// KIR2DS1 /// KIR2DS2 /// KIR2DS3 /// KIR2DS4 /// KIR3DL3 /// KIR3DL3 /// KIR3DS1 (11738374_at) / RFU C1QL1 (11718748_at) / Fold change /veh C1QL1 (11718748_at) / RFU TMPRSS4 (11747572_a_at) / Fold change /veh TMPRSS4 (11747572_a_at) / RFU HAMP (11756126_x_at) / Fold change /veh HAMP (11756126_x_at) / RFU RNFT2 (11725882_a_at) / Fold change /veh RNFT2 (11725882_a_at) / RFU NR4A2 (11747474_a_at) / Fold change /veh NR4A2 (11747474_a_at) / RFU ABCC12 (11746883_a_at) / Fold change /veh ABCC12 (11746883_a_at) / RFU TMEM136 (11760407_x_at) / Fold change /veh TMEM136 (11760407_x_at) / RFU CLDN22 /// WWC2 (11732394_at) / Fold change /veh CLDN22 /// WWC2 (11732394_at) / RFU HLA-DPB1 (11760878_x_at) / Fold change /veh HLA-DPB1 (11760878_x_at) / RFU SPINT1 (11716480_a_at) / Fold change /veh SPINT1 (11716480_a_at) / RFU GAP43 (11754022_s_at) / Fold change /veh GAP43 (11754022_s_at) / RFU A4GNT (11735810_at) / Fold change /veh A4GNT (11735810_at) / RFU PRB3 (11715151_x_at) / Fold change /veh PRB3 (11715151_x_at) / RFU TUBB4B (11761932_at) / Fold change /veh TUBB4B (11761932_at) / RFU CAPN14 (11732068_a_at) / Fold change /veh CAPN14 (11732068_a_at) / RFU TMCC2 (11721928_a_at) / Fold change /veh TMCC2 (11721928_a_at) / RFU IRGQ (11745062_a_at) / Fold change /veh IRGQ (11745062_a_at) / RFU FAM174B (11720279_a_at) / Fold change /veh FAM174B (11720279_a_at) / RFU TMPRSS4 (11748680_a_at) / Fold change /veh TMPRSS4 (11748680_a_at) / RFU FAM212B (11763350_a_at) / Fold change /veh FAM212B (11763350_a_at) / RFU PLEKHG5 (11743358_a_at) / Fold change /veh PLEKHG5 (11743358_a_at) / RFU ZSCAN30 (11745921_a_at) / Fold change /veh ZSCAN30 (11745921_a_at) / RFU CMKLR1 (11741424_a_at) / Fold change /veh CMKLR1 (11741424_a_at) / RFU LOC101060620 /// MAPK8IP1 (11723275_at) / Fold change /veh LOC101060620 /// MAPK8IP1 (11723275_at) / RFU SPTSSB (11747773_x_at) / Fold change /veh SPTSSB (11747773_x_at) / RFU PRSS12 (11739890_at) / Fold change /veh PRSS12 (11739890_at) / RFU BIN1 (11741810_x_at) / Fold change /veh BIN1 (11741810_x_at) / RFU WNT11 (11732464_a_at) / Fold change /veh WNT11 (11732464_a_at) / RFU C10orf10 (11716521_a_at) / Fold change /veh C10orf10 (11716521_a_at) / RFU C5orf56 (11738089_at) / Fold change /veh C5orf56 (11738089_at) / RFU CYB561 (11721691_x_at) / Fold change /veh CYB561 (11721691_x_at) / RFU ANKRD19P (11752326_a_at) / Fold change /veh ANKRD19P (11752326_a_at) / RFU OR2T12 /// OR2T33 /// OR2T8 (11738714_s_at) / Fold change /veh OR2T12 /// OR2T33 /// OR2T8 (11738714_s_at) / RFU VCAN (11748164_a_at) / Fold change /veh VCAN (11748164_a_at) / RFU JSRP1 (11732532_at) / Fold change /veh JSRP1 (11732532_at) / RFU KRTAP10-11 (11738290_x_at) / Fold change /veh KRTAP10-11 (11738290_x_at) / RFU MYO3A (11730013_a_at) / Fold change /veh MYO3A (11730013_a_at) / RFU EBF3 (11725865_a_at) / Fold change /veh EBF3 (11725865_a_at) / RFU CAMK2N1 (11719241_x_at) / Fold change /veh CAMK2N1 (11719241_x_at) / RFU C5orf56 (11738088_a_at) / Fold change /veh C5orf56 (11738088_a_at) / RFU OLFML3 (11715873_a_at) / Fold change /veh OLFML3 (11715873_a_at) / RFU LOC100653217 /// NTM (11731650_a_at) / Fold change /veh LOC100653217 /// NTM (11731650_a_at) / RFU MAPK11 (11762145_a_at) / Fold change /veh MAPK11 (11762145_a_at) / RFU FIZ1 (11724087_x_at) / Fold change /veh FIZ1 (11724087_x_at) / RFU OASL (11726364_x_at) / Fold change /veh OASL (11726364_x_at) / RFU SOX15 (11748057_x_at) / Fold change /veh SOX15 (11748057_x_at) / RFU CD79A (11719716_a_at) / Fold change /veh CD79A (11719716_a_at) / RFU HIST1H1D (11736915_at) / Fold change /veh HIST1H1D (11736915_at) / RFU CASKIN2 (11723855_a_at) / Fold change /veh CASKIN2 (11723855_a_at) / RFU LOC730098 (11760151_x_at) / Fold change /veh LOC730098 (11760151_x_at) / RFU OR4N2 (11742367_at) / Fold change /veh OR4N2 (11742367_at) / RFU PRRT2 (11749266_a_at) / Fold change /veh PRRT2 (11749266_a_at) / RFU SNX32 (11753110_a_at) / Fold change /veh SNX32 (11753110_a_at) / RFU CDHR5 (11726645_a_at) / Fold change /veh CDHR5 (11726645_a_at) / RFU RCAN1 (11760418_a_at) / Fold change /veh RCAN1 (11760418_a_at) / RFU FAM167A (11723789_a_at) / Fold change /veh FAM167A (11723789_a_at) / RFU FAM26E (11764081_at) / Fold change /veh FAM26E (11764081_at) / RFU ISYNA1 (11749810_s_at) / Fold change /veh ISYNA1 (11749810_s_at) / RFU ACY1 (11761880_at) / Fold change /veh ACY1 (11761880_at) / RFU 11764098_at / Fold change /veh 11764098_at / RFU SAMD14 (11745864_x_at) / Fold change /veh SAMD14 (11745864_x_at) / RFU NPB (11741838_a_at) / Fold change /veh NPB (11741838_a_at) / RFU TMPRSS6 (11731388_a_at) / Fold change /veh TMPRSS6 (11731388_a_at) / RFU KRTAP10-2 (11738614_at) / Fold change /veh KRTAP10-2 (11738614_at) / RFU ARHGAP8 /// PRR5-ARHGAP8 (11727945_x_at) / Fold change /veh ARHGAP8 /// PRR5-ARHGAP8 (11727945_x_at) / RFU KRTAP5-7 /// NADSYN1 (11734609_at) / Fold change /veh KRTAP5-7 /// NADSYN1 (11734609_at) / RFU RASL12 (11751679_a_at) / Fold change /veh RASL12 (11751679_a_at) / RFU CDKN2B (11736163_a_at) / Fold change /veh CDKN2B (11736163_a_at) / RFU PRF1 (11729649_at) / Fold change /veh PRF1 (11729649_at) / RFU, ZNF638 /// ZNF638-IT1 / Fold change vs veh, ZNF638 /// ZNF638-IT1 / RFU, PANK3 / Fold change vs veh, PANK3 / RFU, SH3YL1 / Fold change vs veh, SH3YL1 / RFU, ZEB2 / Fold change vs veh, ZEB2 / RFU, NRIP1 / Fold change vs veh, NRIP1 / RFU, PTTG1IP / Fold change vs veh, PTTG1IP / RFU, CAPN2 / Fold change vs veh, CAPN2 / RFU, MED14 / Fold change vs veh, MED14 / RFU, SNORA58 / Fold change vs veh, SNORA58 / RFU, C1orf63 / Fold change vs veh, C1orf63 / RFU, LRRFIP1 / Fold change vs veh, LRRFIP1 / RFU, NDUFAF7 / Fold change vs veh, NDUFAF7 / RFU, SLC12A2 / Fold change vs veh, SLC12A2 / RFU, IBTK / Fold change vs veh, IBTK / RFU, ESF1 / Fold change vs veh, ESF1 / Fold change vs veh, TMEM50B / RFU, TAOK1 / Fold change vs veh, TAOK1 / RFU, ACBD3 / Fold change vs veh, ACBD3 / RFU, TMA16 / Fold change vs veh, TMA16 / RFU, RWDD3 / Fold change vs veh, RWDD3 / RFU, BCAT1 / Fold change vs veh, BCAT1 / RFU, EDEM3 / Fold change vs veh, EDEM3 / RFU, TMEM33 / Fold change vs veh, TMEM33 / RFU, WDR75 / Fold change vs veh, WDR75 / RFU, AHCTF1 / Fold change vs veh, AHCTF1 / RFU, TFRC / Fold change vs veh, TFRC / RFU, ZDHHC17 / Fold change vs veh, ZDHHC17 / RFU, NOM1 / Fold change vs veh, NOM1 / RFU, ARL8B / Fold change vs veh, ARL8B / RFU, ZBTB11 / Fold change vs veh, ZBTB11 / RFU, TAMM41 / Fold change vs veh, TAMM41 / RFU, KIAA1704 /// LOC100996395 / Fold change vs veh, KIAA1704 /// LOC100996395 / RFU, ING1 / Fold change vs veh, ING1 / RFU, TRMT61B / Fold change vs veh, TRMT61B / RFU, FUBP3 / Fold change vs veh, FUBP3 / RFU, TP53 / Fold change vs veh, TP53 / RFU, TNKS2 / Fold change vs veh, TNKS2 / RFU, ZFP14 / Fold change vs veh, ZFP14 / RFU, ACTR2 / Fold change vs veh, ACTR2 / RFU, PPP3R1 / Fold change vs veh, PPP3R1 / RFU, PIK3R1 / Fold change vs veh, PIK3R1 / RFU, HNRNPA1 / Fold change vs veh, HNRNPA1 / RFU, RNF170 / Fold change vs veh, RNF170 / RFU, ZNF28 / Fold change vs veh, ZNF28 / RFU, RNGTT / Fold change vs veh, RNGTT / RFU, OGT / Fold change vs veh, OGT / RFU, BRD1 / Fold change vs veh, BRD1 / RFU, MARS / Fold change vs veh, MARS / RFU, ZNF655 / Fold change vs veh, ZNF655 / RFU, FAHD1 / Fold change vs veh, FAHD1 / RFU, BDP1 / Fold change vs veh, BDP1 / RFU, LRRCC1 / Fold change vs veh, LRRCC1 / RFU, ARID1A / Fold change vs veh, ARID1A / RFU, ZNF146 / Fold change vs veh, ZNF146 / RFU, ZNF330 / Fold change vs veh, ZNF330 / RFU, GPN3 / Fold change vs veh, GPN3 / RFU, C9orf123 / Fold change vs veh, C9orf123 / RFU, N4BP2L2 / Fold change vs veh, N4BP2L2 / RFU, ARFIP1 / Fold change vs veh, ARFIP1 / RFU, FAM179B / Fold change vs veh, FAM179B / RFU, BCL10 / Fold change vs veh, BCL10 / RFU, UHRF1BP1L / Fold change vs veh, UHRF1BP1L / RFU, BET1 / Fold change vs veh, BET1 / RFU, CNOT2 / Fold change vs veh, CNOT2 / RFU, ZNF268 / Fold change vs veh, ZNF268 / Fold change vs veh, ZNF507 / RFU, DGCR2 / Fold change vs veh, DGCR2 / RFU, WDSUB1 / Fold change vs veh, WDSUB1 / Fold change vs veh, HSP90B1 /// MIR3652 / RFU, ADSS / Fold change vs veh, ADSS / RFU, GK / Fold change vs veh, GK / RFU, ZNF148 / Fold change vs veh, ZNF148 / RFU, TAF9 / Fold change vs veh, TAF9 / RFU, SLC1A5 / Fold change vs veh, SLC1A5 / RFU, SLMO2 / Fold change vs veh, SLMO2 / RFU, ABCC4 / Fold change vs veh, ABCC4 / RFU, LOC101060439 /// RAP1B / Fold change vs veh, LOC101060439 /// RAP1B / RFU, RFX7 / Fold change vs veh, RFX7 / RFU, GTPBP10 / Fold change vs veh, GTPBP10 / RFU, CNEP1R1 / Fold change vs veh, CNEP1R1 / RFU, BIVM-ERCC5 /// ERCC5 / Fold change vs veh, BIVM-ERCC5 /// ERCC5 / RFU, ILF3 / Fold change vs veh, ILF3 / RFU 11762660_at / Fold change /veh 11762660_at / RFU VCAN (11757783_s_at) / Fold change /veh VCAN (11757783_s_at) / RFU DDX43 (11728927_at) / Fold change /veh DDX43 (11728927_at) / RFU KRT8 (11758188_x_at) / Fold change /veh KRT8 (11758188_x_at) / RFU NKD1 (11759106_at) / Fold change /veh NKD1 (11759106_at) / RFU SRD5A1 (11742802_a_at) / Fold change /veh SRD5A1 (11742802_a_at) / RFU TPSAB1 /// TPSB2 (11721975_s_at) / Fold change /veh TPSAB1 /// TPSB2 (11721975_s_at) / RFU GSTM3 (11746129_a_at) / Fold change /veh GSTM3 (11746129_a_at) / RFU IL23R (11737362_x_at) / Fold change /veh IL23R (11737362_x_at) / RFU TMEM51 (11727254_a_at) / Fold change /veh TMEM51 (11727254_a_at) / RFU PIWIL2 (11732686_x_at) / Fold change /veh PIWIL2 (11732686_x_at) / RFU ORM1 (11744905_x_at) / Fold change /veh ORM1 (11744905_x_at) / RFU CCDC152 (11743942_at) / Fold change /veh CCDC152 (11743942_at) / RFU ECM1 (11717891_a_at) / Fold change /veh ECM1 (11717891_a_at) / RFU IL23R (11748794_a_at) / Fold change /veh IL23R (11748794_a_at) / RFU TNFAIP8L3 (11732012_x_at) / Fold change /veh TNFAIP8L3 (11732012_x_at) / RFU MBOAT4 (11741988_at) / Fold change /veh MBOAT4 (11741988_at) / RFU 11764193_at / Fold change /veh 11764193_at / RFU TMEM53 (11763286_at) / Fold change /veh TMEM53 (11763286_at) / RFU MAGEB2 (11727129_at) / Fold change /veh MAGEB2 (11727129_at) / RFU TMEM200A (11744735_a_at) / Fold change /veh TMEM200A (11744735_a_at) / RFU CCDC152 (11751479_a_at) / Fold change /veh CCDC152 (11751479_a_at) / RFU FAM211A (11726209_a_at) / Fold change /veh FAM211A (11726209_a_at) / RFU RGS16 (11746705_a_at) / Fold change /veh RGS16 (11746705_a_at) / RFU VCAN (11755009_s_at) / Fold change /veh VCAN (11755009_s_at) / RFU RHOB (11743442_s_at) / Fold change /veh RHOB (11743442_s_at) / RFU RGS16 (11720943_a_at) / Fold change /veh RGS16 (11720943_a_at) / RFU RGS16 (11720944_at) / Fold change /veh RGS16 (11720944_at) / RFU, VPS4B / Fold change vs veh, VPS4B / RFU, CREB1 / Fold change vs veh, CREB1 / RFU, DNAJC13 / Fold change vs veh, DNAJC13 / RFU, GNAQ / Fold change vs veh, GNAQ / RFU, CDK5R1 / Fold change vs veh, CDK5R1 / RFU, ZRANB3 / Fold change vs veh, ZRANB3 / RFU, CUL4A / Fold change vs veh, CUL4A / RFU, CCNY / Fold change vs veh, CCNY / RFU, UFL1 / Fold change vs veh, UFL1 / RFU, COG3 / Fold change vs veh, COG3 / RFU, DIAPH2 / Fold change vs veh, DIAPH2 / RFU, SKA2 / Fold change vs veh, SKA2 / RFU, AFF3 / Fold change vs veh, AFF3 / RFU, LMF1 / Fold change vs veh, LMF1 / RFU, IPO11 / Fold change vs veh, IPO11 / RFU, DFFB / Fold change vs veh, DFFB / RFU, FOXP1 / Fold change vs veh, FOXP1 / RFU, CARD8 / Fold change vs veh, CARD8 / RFU, STRN3 / Fold change vs veh, STRN3 / RFU, ADK / Fold change vs veh, ADK / RFU, RASSF2 / Fold change vs veh, RASSF2 / RFU, WIPF1 / Fold change vs veh, WIPF1 / RFU, LARP1B / Fold change vs veh, LARP1B / RFU, RASA1 / Fold change vs veh, RASA1 / RFU, RB1 / Fold change vs veh, RB1 / RFU, PPFIA1 / Fold change vs veh, PPFIA1 / RFU, MAT2A / Fold change vs veh, MAT2A / RFU, CCT5 / Fold change vs veh, CCT5 / RFU, WDR92 / Fold change vs veh, WDR92 / RFU, CUX1 / Fold change vs veh, CUX1 / RFU, TTC7A / Fold change vs veh, TTC7A / RFU, TMEM135 / Fold change vs veh, TMEM135 / RFU, DEPTOR / Fold change vs veh, DEPTOR / RFU, CPM / Fold change vs veh, CPM / RFU, DNAJB6 / Fold change vs veh, DNAJB6 / RFU, CACNA2D3 / Fold change vs veh, CACNA2D3 / RFU, DTX4 / Fold change vs veh, DTX4 / RFU, TFCP2 / Fold change vs veh, TFCP2 / RFU, GMCL1 /// GMCL1P1 / Fold change vs veh, GMCL1 /// GMCL1P1 / RFU, AEBP2 / Fold change vs veh, AEBP2 / RFU, SNHG1 /// SNORD22 /// SNORD25 /// SNORD26 /// SNORD27 /// SNORD28 /// SNORD29 /// SNORD31 / Fold change vs veh, SNHG1 /// SNORD22 /// SNORD25 /// SNORD26 /// SNORD27 /// SNORD28 /// SNORD29 /// SNORD31 / Fold change (Aza/veh), C12orf56 (ProbeSet 11735607_a_at) / Fold change (ACY-1035/veh), C12orf56 (ProbeSet 11735607_a_at) / Fold change (Aza/veh), FGFR1OP (ProbeSet 11751329_s_at) / Fold change (ACY-1035/veh), FGFR1OP (ProbeSet 11751329_s_at) / Fold change (Aza/veh), VPS36 (ProbeSet 11739960_a_at) / Fold change (ACY-1035/veh), VPS36 (ProbeSet 11739960_a_at) / RFU SYPL1 (11715823_x_at) / Fold change /veh SYPL1 (11715823_x_at) / RFU IGFBP7 (11715501_s_at) / Fold change /veh IGFBP7 (11715501_s_at) / RFU REEP3 (11722064_at) / Fold change /veh REEP3 (11722064_at) / RFU IGLL1 (11728026_x_at) / Fold change /veh IGLL1 (11728026_x_at): dose or concentration left out as unconfirmed
Conditions: ProbeSet 11723141_at; LIST B

Compound: Nc1ncn([C@@H]2O[C@H](CO)[C@@H](O)[C@H]2O)c(=O)n1 [azacitidine]
- RFU, ZBTB11: 125.26 RFU
